Experimental data: patent US20110190365A1, “Insecticidal 4-phenyl-1H-pyrazoles” (Bayer Crop Science AG, priority 2008, published 2011)

Assay: log P by HPLC on a reversed-phase column (C18), EEC Directive 79/831 Annex V.A8
Format: physicochemical
Conditions: HCOOH
Method: The stated log P values were determined in accordance with EEC Directive 79/831 Annex V.A8 by HPLC (High Performance Liquid Chromatography) using a reversed-phase column (C18).

Structure (SMILES)	log P (HCOOH)
Cc1cc(-n2nc(C(F)(F)F)c(-c3ccc(Br)cc3)c2N)ccc1C(=O)NCC(F)(F)C(F)F [I-A-Q2-303]	I-A-Q2-303: log P (HCOOH): 3.70
CC(NC(=O)c1ccc(-n2nc(C(F)(F)F)c(-c3cccc(Cl)c3)c2N)cc1)C(F)(F)F (stereo not shown) [I-A-Q2-083]	I-A-Q2-083: log P (HCOOH): 3.68
CC(NC(=O)c1ccc(-n2nc(C(F)(F)F)c(-c3cc(Cl)cc(Cl)c3)c2N)nc1)c1ccccc1 (stereo not shown) [I-A-Q2-103]	I-A-Q2-103: log P (HCOOH): 5.19
CC(C)NC(=O)c1ccc(-n2nc(C(F)(F)F)c(-c3cc(Cl)cc(Cl)c3)c2N)nc1 [I-A-Q2-097]	I-A-Q2-097: log P (HCOOH): 4.64
Cc1nc(CNC(=O)c2ccc(-n3nc(C(F)(F)F)c(-c4cc(Cl)cc(Cl)c4)c3N)cc2C)c(C)o1 [I-A-Q2-251]	I-A-Q2-251: log P (HCOOH): 3.84
Cc1cc(-n2nc(C(F)(F)F)c(-c3cc(Cl)cc(Cl)c3)c2N)ccc1C(=O)N(C)CC(F)(F)C(F)F [I-A-Q2-033]	I-A-Q2-033: log P (HCOOH): 4.51
CNC(=O)c1ccc(-n2nc(C(F)(F)F)c(-c3ccccc3Cl)c2N)cc1 [I-A-Q2-082]	I-A-Q2-082: log P (HCOOH): 2.46
CC(C)CC(NC(=O)c1ccc(-n2nc(C(F)(F)F)c(-c3cc(Cl)cc(Cl)c3)c2N)cc1)C(F)(F)F (stereo not shown) [I-A-Q2-070]	I-A-Q2-070: log P (HCOOH): 5.25
Cc1cc(-n2nc(C(F)(F)F)c(-c3cc(Cl)cc(Cl)c3)c2N)ccc1C(=O)NC(C)C1(Cl)CC1 (stereo not shown) [I-A-Q2-261]	I-A-Q2-261: log P (HCOOH): 4.76
Cc1cc(-n2nc(C(F)(F)F)c(-c3cc(Cl)cc(Cl)c3)c2N)ccc1C(=O)NC1CC1F (stereo not shown) [I-A-Q2-281]	I-A-Q2-281: log P (HCOOH): 3.97
CC(NC(=O)c1ccc(-n2nc(C(F)(F)F)c(-c3cc(Cl)cc(Cl)c3)c2Br)cc1)C(F)(F)F (stereo not shown) [I-A-Q2-096]	I-A-Q2-096: log P (HCOOH): 5.35
Cc1cc(-n2nc(C(F)(F)F)c(-c3cc(Cl)cc(Cl)c3)c2N)ccc1C(=O)NCc1cccc(F)c1 [I-A-Q2-214]	I-A-Q2-214: log P (HCOOH): 4.45
Nc1c(-c2cccc(F)c2)c(C(F)(F)F)nn1-c1ccc(C(=O)NCC(F)(F)F)cc1 [I-A-Q2-183]	I-A-Q2-183: log P (HCOOH): 3.11
CC(NC(=O)c1ccc(-n2nc(C(F)(F)F)c(-c3cc(Cl)cc(Cl)c3)c2N)cc1)C(F)(F)F (stereo not shown) [I-A-Q2-133]	I-A-Q2-133: log P (HCOOH): 4.44
CC(NC(=O)c1ccc(-n2nc(C(F)(F)F)c(-c3ccc(Cl)cc3)c2N)cc1)C(F)(F)F (stereo not shown) [I-A-Q2-153]	I-A-Q2-153: log P (HCOOH): 3.89
Cc1cc(-n2nc(C(F)(F)F)c(-c3cc(Cl)cc(Cl)c3)c2N)ccc1C(=O)NCC(F)(F)C(F)(F)C(F)(F)C(F)(F)C(F)(F)C(F)(F)C(F)(F)F [I-A-Q2-267]	I-A-Q2-267: log P (HCOOH): 6.14
CC(C)(C)NC(=O)c1ccc(-n2nc(C(F)(F)F)c(-c3cc(Cl)cc(Cl)c3)c2N)cc1 [I-A-Q2-146]	I-A-Q2-146: log P (HCOOH): 4.54
Cc1cc(-n2nc(-c3ccccc3)c(-c3ccc(Cl)cc3)c2N)ccc1C(=O)NCc1ccccn1 [I-A-Q2-377]	I-A-Q2-377: log P (HCOOH): 2.80
Cc1cc(-n2nc(C(F)(F)F)c(-c3cc(Cl)cc(Cl)c3)c2N)ccc1C(=O)NCc1ccncn1 [I-A-Q2-260]	I-A-Q2-260: log P (HCOOH): 3.33
Cc1cc(-n2nc(C(F)(F)F)c(-c3ccc(Cl)c(Cl)c3)c2N)ccc1C(=O)NCc1ccccn1 [I-A-Q2-347]	I-A-Q2-347: log P (HCOOH): 3.11
Cc1cc(-n2nc(C(F)(F)F)c(-c3cc(Cl)cc(Cl)c3)c2N)ccc1C(=O)NC(C)Cn1cccn1 (stereo not shown) [I-A-Q2-243]	I-A-Q2-243: log P (HCOOH): 3.78

Structure (SMILES)	log P (HCOOH)
Cc1cc(-n2nc(C)c(-c3c(F)cccc3Cl)c2N)ccc1C(=O)NCc1ccccn1 [I-A-Q2-374]	I-A-Q2-374: log P (HCOOH): 1.66
Nc1c(-c2cc(Cl)cc(Cl)c2)c(C(F)(F)F)nn1-c1ccc(C(=O)NCC(F)(F)F)cc1 [I-A-Q2-138]	I-A-Q2-138: log P (HCOOH): 4.21
Cc1cc(-n2nc(C(F)(F)F)c(-c3cc(Cl)cc(Cl)c3)c2N)ccc1C(=O)NCc1cc(-c2ccccc2)ccn1 [I-A-Q2-206]	I-A-Q2-206: log P (HCOOH): 4.29
Cc1cc(-n2nc(C(F)F)c(-c3ccc(Cl)cc3)c2N)ccc1C(=O)NCC(F)(F)C(F)F [I-A-Q2-320]	I-A-Q2-320: log P (HCOOH): 3.23
Cc1cc(-n2nc(C(F)(F)c3cccc(Br)c3)c(-c3cc(Cl)cc(C(F)(F)F)c3)c2N)ccc1C(=O)NCC(F)(F)C(F)F [I-A-Q2-285]	I-A-Q2-285: log P (HCOOH): 4.95
Cc1cc(-n2nc(C(F)(F)F)c(-c3ccc(I)cc3)c2N)ccc1C(=O)NCC(F)(F)C(F)F [I-A-Q2-313]	I-A-Q2-313: log P (HCOOH): 3.85
Nc1c(-c2cccc(F)c2)c(C(F)(F)F)nn1-c1ccc(C(=O)NCc2ccccn2)cc1 [I-A-Q2-185]	I-A-Q2-185: log P (HCOOH): 2.14
Nc1c(-c2ccc(Cl)c(F)c2)c(C(F)(F)F)nn1-c1ccc(C(=O)NCc2ccccn2)cc1 [I-A-Q2-168]	I-A-Q2-168: log P (HCOOH): 2.61
COC(CNC(=O)c1ccc(-n2nc(C(F)(F)F)c(-c3cc(Cl)cc(Cl)c3)c2N)cc1C)OC [I-A-Q2-224]	I-A-Q2-224: log P (HCOOH): 3.78
Cc1cc(-n2nc(-c3ccccc3)c(-c3ccc(Cl)cc3)c2N)ccc1C(=O)NCC(F)(F)C(F)F [I-A-Q2-337]	I-A-Q2-337: log P (HCOOH): 3.80
Cc1cc(-n2nc(C(F)(F)C(F)(F)F)c(-c3cc(C(F)(F)F)cc(C(F)(F)F)c3)c2N)ccc1C(=O)NCC(F)(F)C(F)F [I-A-Q2-343]	I-A-Q2-343: log P (HCOOH): 4.57
Nc1c(-c2ccc(F)c(F)c2)c(C(F)(F)F)nn1-c1ccc(C(=O)NC2CC2)cc1 [I-A-Q2-176]	I-A-Q2-176: log P (HCOOH): 2.89
CC(NC(=O)c1ccc(-n2nc(C(F)(F)F)c(-c3cc(F)cc(Cl)c3)c2N)cc1)C(F)(F)F (stereo not shown) [I-A-Q2-084]	I-A-Q2-084: log P (HCOOH): 3.89
Nc1c(-c2cc(F)cc(Cl)c2)c(C(F)(F)F)nn1-c1ccc(C(=O)NC2CC2)cc1 [I-A-Q2-092]	I-A-Q2-092: log P (HCOOH): 3.27
Cc1cc(-n2nc(C(F)(F)F)c(-c3cc(F)cc(F)c3)c2N)ccc1C(=O)NCC(F)(F)C(F)F [I-A-Q2-315]	I-A-Q2-315: log P (HCOOH): 3.37
Nc1c(-c2cccc(Cl)c2)c(C(F)(F)F)nn1-c1ccc(C(=O)NC2CC2)cc1 [I-A-Q2-091]	I-A-Q2-091: log P (HCOOH): 3.09
Cc1cc(-n2nc(C(F)(F)F)c(-c3cc(Cl)cc(Cl)c3)c2N)ccc1C(=O)NCc1ccc(F)cn1 [I-A-Q2-039]	I-A-Q2-039: log P (HCOOH): 3.94
CNC(=O)c1ccc(-n2nc(-c3ccccc3)c(-c3ccc(Cl)cc3)c2N)cc1 [I-A-Q2-078]	I-A-Q2-078: log P (HCOOH): 2.94
Cc1cc(-n2nc(C)c(-c3ccc(F)cc3Cl)c2N)ccc1C(=O)NCC(F)(F)C(F)F [I-A-Q2-327]	I-A-Q2-327: log P (HCOOH): 2.73
Cc1cc(-n2nc(C)c(-c3ccc(Cl)c(Cl)c3)c2N)ccc1C(=O)NCc1ccccn1 [I-A-Q2-365]	I-A-Q2-365: log P (HCOOH): 2.27
Nc1c(Cl)c(C(F)(F)F)nn1-c1ccc(C(=O)O)cc1 [XI-A-043]	XI-A-043: log P (HCOOH): 2.34

Same assay, conditions: HCOOH; Table 4, compounds of formula I-A-Q4

Structure (SMILES)	log P (HCOOH)
CCc1nn(-c2ccc(Cl)cn2)c(N)c1-c1ccc(Cl)cc1 [I-A-Q4-026]	I-A-Q4-026: log P (HCOOH): 5.02
Nc1c(-c2ccc(Cl)c(F)c2)c(C(F)(F)F)nn1-c1ccc(C(=O)O)cc1 [I-A-Q4-093]	I-A-Q4-093: log P (HCOOH): 3.39
Nc1c(-c2ccc(Cl)cc2Cl)c(C(F)(F)F)nn1-c1ccc(Cl)cn1 [I-A-Q4-044]	I-A-Q4-044: log P (HCOOH): 5.02
Nc1c(-c2ccc(F)c(Cl)c2)c(C(F)(F)F)nn1-c1ccc(Cl)cn1 [I-A-Q4-047]	I-A-Q4-047: log P (HCOOH): 4.95
N#Cc1cc(-n2nc(C(F)(F)F)c(-c3cc(Cl)cc(Cl)c3)c2N)ccc1F [I-A-Q4-103]	I-A-Q4-103: log P (HCOOH): 4.44
CCCc1nn(-c2ccc(Cl)cn2)c(N)c1-c1ccc(Cl)cc1 [I-A-Q4-025]	I-A-Q4-025: log P (HCOOH): 5.51
Cc1ccc(-c2c(C(F)(F)F)nn(-c3ccc(Cl)cn3)c2N)cc1 [I-A-Q4-055]	I-A-Q4-055: log P (HCOOH): 4.83
Nc1c(-c2cccc(F)c2)c(C(F)(F)F)nn1-c1ccc(C(=O)O)cc1 [I-A-Q4-097]	I-A-Q4-097: log P (HCOOH): 2.88
Cc1nn(-c2ccc(Cl)cn2)c(N)c1-c1ccc(F)cc1Cl [I-A-Q4-037]	I-A-Q4-037: log P (HCOOH): 4.05
Cc1nn(-c2ccc(Cl)cn2)c(N)c1-c1ccc(F)cc1F [I-A-Q4-035]	I-A-Q4-035: log P (HCOOH): 3.78

Same assay, conditions: HPLC, reversed-phase C18, mobile phase with formic acid

Structure (SMILES)	log P (HCOOH)
Cc1nn(-c2ccc(-n3cncn3)c(C#N)c2)c(N)c1-c1ccc(Cl)cc1Cl [I-A-Q1-056]	I-A-Q1-056: log P (HCOOH): 2.80
Cc1nn(-c2ccc(-n3cncn3)c(C#N)c2)c(N)c1-c1cc(Cl)ccc1Cl [I-A-Q1-028]	I-A-Q1-028: log P (HCOOH): 2.65
N#Cc1cc(-n2nc(C(F)(F)F)c(-c3ccc(I)cc3)c2N)ccc1-n1cncn1 [I-A-Q1-043]	I-A-Q1-043: log P (HCOOH): 3.61
Nc1c(-c2cc(Cl)cc(Cl)c2)c(C(F)(F)F)nn1-c1ccc(CNC(=O)C2CC2)c(Cl)c1 [I-A-Q3-022]	I-A-Q3-022: log P (HCOOH): 4.12
Cc1nn(-c2ccc(-n3cncn3)c(C#N)c2)c(N)c1-c1ccc(F)cc1 [I-A-Q1-059]	I-A-Q1-059: log P (HCOOH): 2.30
Cc1nn(-c2ccc(-n3cncn3)c(C#N)c2)c(N)c1-c1ccc(F)cc1Cl [I-A-Q1-052]	I-A-Q1-052: log P (HCOOH): 2.43
Cc1nn(-c2ccc(-n3cncn3)c(C#N)c2)c(N)c1-c1ccc(F)cc1F [I-A-Q1-057]	I-A-Q1-057: log P (HCOOH): 2.35
Cc1nn(-c2ccc(-n3cncn3)c(C#N)c2)c(N)c1-c1ccc(Cl)c(Cl)c1 [I-A-Q1-025]	I-A-Q1-025: log P (HCOOH): 3.02

Same assay, conditions: HPLC, reversed-phase C18, mobile phase with formic acid; read-out: log P (HCOOH)

Structure (SMILES)	chromatographic logP
COC(=O)c1ccc(NN)cc1C [VII-A-008, Methyl 4-hydrazino-2-methylbenzoate]	0.4
